What was measured:
[1] = test system: carrageenan-induced foot inflammation; settings: some rodents; cited from earlier work
[2] = test system: semen ejaculates; experiment: Lipid peroxidation inhibition in semen ejaculates; type: cell-based; settings: for inhibition at 20 µM: 20 µM in diluent of Example 1; for inhibition at 40 µM: 40 µM in diluent of Example 1; for inhibition at 50 µM: 50 µM in diluent of Example 1; for inhibition at 60 µM: 60 µM in diluent of Example 1; for inhibition at 80 µM: 80 µM in diluent of Example 1; for inhibition at 100 µM: 100 µM in diluent of Example 1
Method: (§1) Two diluents are prepared in accordance with Example 1, adding isoespintanol to one of them, and thymol to the other. In order to determine the cytoprotective (antioxidant) potential of each, the effects of adding different concentrations of these compounds to semen ejaculates were studied. The inhibition of ROS production and the reduction of lipid peroxidation were assessed, thereby determining the effective range as well as the maximum inhibitory concentration of thymol and isoespintanol (Tables 2 and 3). Table 2. Results of the inhibition of ROS production

[3] = test system: interleukin-1β; settings: cited from earlier work
[4] = test system: semen ejaculates; experiment: Inhibition of ROS production in semen ejaculates; type: cell-based; settings: for inhibition at 20 µM: 20 µM in diluent of Example 1; for inhibition at 40 µM: 40 µM in diluent of Example 1; for inhibition at 50 µM: 50 µM in diluent of Example 1; for inhibition at 60 µM: 60 µM in diluent of Example 1; for inhibition at 80 µM: 80 µM in diluent of Example 1; for inhibition at 100 µM: 100 µM in diluent of Example 1
Method: as §1

## COc1cc(C)c(OC)c(O)c1C(C)C [isoespintanol, 2-isopropyl-3,6-dimethoxy-5-methylphenol]
[1]
  reduction of carrageenan-induced foot inflammation: 43%
[2]
  inhibition at 20 µM: 21.1%
  inhibition at 40 µM: 29.9%
  inhibition at 50 µM: 29.4%
  inhibition at 60 µM: 51.1%
  inhibition at 80 µM: 42.1%
  inhibition at 100 µM: 29.8%
[3]
  reduction of interleukin-1β production: ≤ 72%
[4]
  inhibition at 20 µM: 16%
  inhibition at 40 µM: 24.2%
  inhibition at 50 µM: 34.5%
  inhibition at 60 µM: 16.9%
  inhibition at 80 µM: 6.1%
  inhibition at 100 µM: 5.6%

## Cc1ccc(C(C)C)c(O)c1 [thymol, 2-isopropyl-5-methylphenol, reference compound]
[2]
  inhibition at 20 µM: 48.1%
  inhibition at 40 µM: 47.7%
  inhibition at 50 µM: 40.8%
  inhibition at 60 µM: 36.6%
  inhibition at 80 µM: 47%
  inhibition at 100 µM: 28.3%
[4]
  inhibition at 20 µM: 11.7%
  inhibition at 40 µM: 12.3%
  inhibition at 50 µM: 51.2%
  inhibition at 60 µM: 26%
  inhibition at 80 µM: 21%
  inhibition at 100 µM: 27.6%

Source: EP3169154B1, “DILUENT FOR SEMEN PRESERVATION” (Politécnico Colombiano Jaime Isaza Cadavid, priority 2014, dated 2016)
